The record followed here is PubChem BioAssay (NCI).

Each structure is given as a SMILES string. “And” between values parts separate entries of the source, which are not always exact repeats. Equal entries are not always repeated.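 Grown in 96-well plates, cells were treated for 48 hours with each compound at five concentrations. Insufficient inhibition: endpoint recorded as highest concentration tested. GI50: concentration for 50% inhibition of growth. TGI is the concentration that stops growth completely.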 Where a SMILES comes first, the peptide text is derived from it. The star is where a group is joined. Boc = CC(C)(C)OC(=O)* Bounds are passed on as bounds.

What all share (assay): NCI anticancer screen, dose series, 48 h
Assay [1] deals with HCC-2998 colon.
Assay [2] concerns HL-60(TB) leukemia.
Assay [3] has as its system IGROV1 ovarian.
For assay [4], the system named is KM12 colon.
Assay [5] deals with M14 melanoma.
For assay [6], the system named is OVCAR-4 ovarian.
Assay [7] has as its system SF-539 CNS.
For assay [8], the system named is SK-MEL-5 melanoma.
The test system of assay [9] is U251 CNS.
Assay [10] has as its system 786-0 renal.

Take `O=C1c2ccccc2C(=O)c2c1ccc1c2N=C(c2ccc(F)cc2)CC(c2ccc(Cl)c(Cl)c2)N1` (stereo not given): the TGI in assay [1] was determined as 27.8 µM; in assay [2], 35.9 µM; in assay [3], 23.4 µM; in assay [4], 19.4 µM; in assay [5], 37.7 µM; in assay [6], 37 µM. The results for the TGI in assay [7], in assay [8] and in assay [9] were 34.9 µM, 31 µM and 24.7 µM, respectively.

Regarding `C=C1C(=O)O[C@H]2C/C(C)=C/CC/C(C)=C/CC[C@@](C)(O)[C@@H](I)C[C@@H]12`, the TGI came to 10.6 µM in assay [10]; 25.6 µM in [1]; 14.6 µM in assay [2]; 10.2 µM in assay [3]; 18.5 µM in assay [4]; 24.8 µM in [5]. In addition, the TGI in assay [6] was 15.4 µM; in assay [7] it was 12.3 µM; in assay [8], 28.2 µM; in assay [9], 33.4 µM.

Take `Cc1cc(N=Cc2c(CO)cnc(C)c2O)c(N=Cc2c(CO)cnc(C)c2O)cc1C.[Zn]`: the TGI in [10], in assay [1], in assay [2], in assay [3], in assay [4] and in assay [5] was greater than 100 µM in each case. The TGI in assay [6], in assay [7], in assay [8] and in assay [9] was greater than 100 µM each time. Further, the GI50 in [2] is greater than 100 µM.

On to `S=c1nc2[nH]c3ccc(Br)cc3c2n[nH]1`, for which the TGI in assay [10] was greater than 100 µM; in assay [1], greater than 100 µM; in assay [2], 50.5 µM; in assay [3], greater than 100 µM; in [4], greater than 100 µM; in assay [5] it was greater than 100 µM. The TGI in assay [6], in [7], in assay [8] and in assay [9] was greater than 100 µM each time.

In the case of `COc1ccc(C[C@H](N)C(=O)N2C[C@H](CO)C[C@H](n3ccc(=O)[nH]c3=O)C2)cc1`, the TGI in assay [1], in assay [2], in assay [3], in [4], in assay [5] and in assay [6] was greater than 100 µM throughout. Further, the TGI in assay [7], in assay [8] and in [9] was greater than 100 µM throughout.

For the compound `Cc1cc(=O)n2nc(CSc3nnc(N)s3)sc2n1`, the TGI in [10], in assay [1], in assay [2], in assay [3], in assay [4] and in assay [5] was greater than 100 µM throughout. The TGI in [6], in [7], in [8] and in [9] was greater than 100 µM each time.

Turning to `COC(=O)C(Cc1c[nH]c2ccccc12)NC(=O)C(Cc1c[nH]c2ccccc12)NC(=O)C(Cc1c[nH]c2ccccc12)NC(=O)C(Cc1c[nH]c2ccccc12)NC(=O)OC(C)(C)C` (stereo not given) (Boc-WWWW-OMe; configuration not given here), the TGI in [10] is greater than 100 µM; in [1], 38.5 µM; in assay [2] it was 43.4 µM; in assay [3], greater than 100 µM; in assay [5], greater than 100 µM; in [6], greater than 100 µM. In addition, the TGI was greater than 100 µM in [8] and 34.6 µM in [9].

Take `COC(=O)c1ccc(CCc2cc(O)ccc2O)cc1`: the TGI in assay [10] was found to be 18.4 µM; in [1], 59.6 µM; in [2], 5.96 µM; in assay [3], 23.8 µM; in assay [4] it was 27.5 µM; in [5] it was 27.8 µM. Besides, the TGI in assay [6] was found to be 24.4 µM; in assay [7], 19.6 µM; in assay [8], 25.7 µM; in [9], 33.2 µM.

`C=CCN(c1cc(OCc2ccccc2)c(NC(C)=O)cc1[N+](=O)[O-])S(C)(=O)=O`: the TGI in [10] is 49.2 µM; in assay [1] it was greater than 100 µM; in assay [2], greater than 100 µM; in assay [3], 45.4 µM; in assay [4] it was greater than 100 µM; in assay [5], greater than 100 µM. Besides, the TGI in [6] was greater than 100 µM; in assay [7], 31.8 µM; in assay [8] it was greater than 100 µM.

Regarding `COC(=O)c1ccccc1C#CCCCOS(C)(=O)=O`, the TGI in assay [10], in assay [1], in assay [2], in [3], in assay [4] and in assay [5] was greater than 10 µM each time. The TGI in [6], in assay [7], in [8] and in assay [9] was greater than 10 µM each time.

As to `O=C(CN1CCCCC1)c1ccc2c(c1)Sc1ccccc1O2`, the TGI in assay [10] was determined as 33.2 µM; in [1] it was 37 µM; in assay [2] it was 58.1 µM; in assay [3] it was 23.5 µM; in assay [4], 30.1 µM; in assay [5] it was 28.5 µM. In addition, the TGI in assay [6] was found to be 27.5 µM; in [7] it was 30.6 µM; in assay [9], 39.6 µM.

As for `CC(=NCCN(CCN=C(C)c1c(O)cc(C)oc1=O)CCN=C(C)c1c(O)cc(C)oc1=O)c1c(O)cc(C)oc1=O`, the TGI in assay [10], in [1], in assay [2], in assay [3], in assay [4] and in [5] was greater than 100 µM in each case. The TGI in assay [6], in assay [7], in [8] and in assay [9] was greater than 100 µM each time.

Turning to `CN(C)CCCNc1c2ccccc2nc2cccc([N+](=O)[O-])c12`, the TGI in [10] was 0.0058 µM and 0.0531 µM; in assay [1] it was 0.00194 µM and 0.0131 µM; in assay [2], 0.0721 µM; in assay [3], 0.00491 µM; in assay [5], 0.00165 µM; in assay [6], less than 0.001 µM. Further, the TGI in assay [7] is 0.00757 µM and 0.0252 µM; in [8], less than 0.001 µM; in assay [9] it was 0.0143 µM. The GI50 in assay [2] is 0.0175 µM.

As to `O=C(OCCN1CCCCC1)C(c1ccccc1)C1(O)CCSCC1` (stereo not given), the TGI in assay [10], in [1], in assay [2], in assay [3], in assay [4] and in assay [5] was greater than 100 µM each time. The TGI in [6], in assay [7], in assay [8] and in assay [9] was greater than 100 µM in each case.

Take `Cc1ccc(-n2c(O)c3c(N)n[nH]c3c(C#N)c2=O)cc1`: the TGI in [10], in assay [1], in assay [2], in assay [3], in [4] and in assay [5] was greater than 100 µM throughout. Besides, the TGI in assay [6], in assay [7], in assay [8] and in assay [9] was greater than 100 µM each time.

Take `COc1ccc(C[C@H](N)C(=O)N2C[C@H](CO)C[C@H](n3cnc4c(N(C)C)ncnc43)C2)cc1`: the TGI in assay [1], in [2], in assay [3], in [4], in assay [5] and in assay [6] was greater than 100 µM throughout. Further, the TGI in [7], in assay [8] and in [9] was greater than 100 µM in each case.

With `COc1ccc(C(=C(I)c2ccccc2)c2ccc(OC)cc2)cc1`, the TGI in assay [10], in assay [1], in [2], in [3], in assay [4] and in [5] was greater than 100 µM each time. In addition, the TGI in assay [6], in assay [7], in [8] and in assay [9] was greater than 100 µM throughout.

`NCCNCCCCCCNC(=O)c1cccc2cc3ccccc3nc12`: the TGI in assay [10] worked out at 2.88 µM; in [1], 6.79 µM; in [2] it was 3.51 µM; in assay [3], 17.2 µM; in [4], 4.93 µM; in assay [5], 3.6 µM. Further, the TGI in assay [6] worked out at 4.7 µM; in assay [7], 3.88 µM; in assay [8] it was 13.4 µM; in assay [9], 4.15 µM.

`CCCC(CC)c1c(O)c(O)c(C(CC)CCC)c(C(CC)CCC)c1C(CC)CCC` (stereo not given): the TGI in [10], in [1], in [2], in assay [3], in [4] and in assay [5] was greater than 10 µM throughout. For the same compound, the TGI in assay [6], in assay [7], in [8] and in [9] was greater than 10 µM throughout.

In the case of `O=c1[nH]c(=O)n(COCc2ccccc2)c2ccc([N+](=O)[O-])cc12`, the TGI in assay [10], in assay [1], in [2], in assay [3], in assay [4] and in assay [5] was greater than 100 µM throughout. The TGI in assay [6], in assay [7], in [8] and in assay [9] was greater than 100 µM throughout.

As to `N#Cc1c(N2CCCC2)ncn(Cc2ccccc2)c1=S`, the TGI in assay [10], in [1], in [2], in assay [3], in assay [4] and in assay [5] was greater than 100 µM throughout. Moreover, the TGI in assay [6], in assay [7], in assay [8] and in assay [9] was greater than 100 µM throughout.

`O=C1CSC2=NCC3(NN12)c1ccccc1-c1ccccc13`: the TGI in assay [10], in [1], in assay [2], in assay [3], in assay [4] and in assay [5] was greater than 10 µM throughout. The TGI in [6], in assay [7] and in assay [8] was greater than 10 µM throughout.

As to `CN(C)CCOC(=O)c1ccc(N)cc1`, the TGI in assay [10] was greater than 100 µM; in assay [1] it was 31.4 µM; in assay [2], 83.7 µM; in assay [3] it was 74.9 µM; in assay [4] it was greater than 100 µM; in assay [5] it was 34.8 µM. Besides, the TGI in assay [6], in [8] and in assay [9] was greater than 100 µM in each case.

`Cn1c(-c2ccc[se]2)ccc1-c1ccc(CO)[se]1`: the TGI in [10] was greater than 100 µM; in assay [1], 19.3 µM; in [2], greater than 100 µM; in [4], greater than 100 µM; in assay [5] it was greater than 100 µM; in assay [6] it was greater than 100 µM. The TGI in assay [7] was greater than 100 µM; in [8], greater than 100 µM; in assay [9] it was 15.8 µM.

For the compound `Fc1ccc(C2CC(c3cccc(Nc4ccncc4)c3)=NN2c2cc(Cl)cc(Cl)c2)cc1` (stereo not given), the GI50 in assay [1] was 1.6 µM; in assay [2] it was 2.25 µM; in assay [3] it was 1.74 µM; in [4] it was 1.76 µM; in [5] it was 1.74 µM; in assay [6] it was 1.77 µM. The GI50 was 1.64 µM in assay [7] and 1.81 µM in assay [8]. Moreover, the TGI amounted to 2.96 µM in assay [1]; 5.14 µM in [2]; 3.3 µM in assay [3]; 3.26 µM in [4]; 3.28 µM in assay [5]; 3.23 µM in assay [6]. In addition, the TGI in assay [7] turned out to be 3.11 µM; in assay [8], 3.34 µM.

With `O=C1OC2(C(F)(F)F)Oc3ccccc3CN2C12CCCCC2` (stereo not given), the TGI in assay [10] was greater than 100 µM; in assay [1], greater than 100 µM; in assay [2] it was 40.5 µM; in [3], greater than 100 µM; in assay [4], 90.8 µM; in [5] it was 66 µM. For the same compound, the figures for the TGI in assay [6], in [7] and in [9] were greater than 100 µM, greater than 100 µM and 84.4 µM, respectively.

On to `O=C(NC1(C(=O)NNc2nnc(-c3ccccc3)c(-c3ccccc3)n2)C(c2ccccc2)C(c2ccccc2)=NN1c1ccccc1)c1ccccc1` (stereo not given), for which the TGI in assay [10], in assay [1], in assay [2], in assay [4], in assay [5] and in assay [6] was greater than 100 µM each time. Moreover, the TGI in [7], in assay [8] and in assay [9] was greater than 100 µM in each case.
